For orientation: IC50 means the concentration that gives 50% inhibition. A higher IC50 goes with weaker potency in that assay.

This assay has as its target T1, endogenous UTY (Homo sapiens, UniProt O14607).
T1 construct: endogenous UTY; endogenous in cells; host or cells: THP-1 nuclear extract mixed 1:1 with HEK293 lysate
As to the kind of experiment: Bead competition binding assay using immobilized example 1, concentration response curve (HEK293/THP-1 lysate mix). The note with it: competition of binding to immobilized example 1, 0.156-40 µM, HEK293 lysate mixed 1:1 with THP-1 nuclear extract. Here is the method: Then the affinity matrix with the immobilized example 1 was added to capture proteins that were not interacting with the previously added free reference compound. Beads were separated from the lysate and bead bound proteins were eluted in SDS sample buffer and subsequently separated by SDS-Polyacrylamide gel electrophoresis. The gel was stained with colloidal Coomassie and stained areas of each gel lane were cut out and subjected to in-gel proteolytic digestion with trypsin. Peptides originating from the different gel areas were labeled with isobaric tagging reagents (TMT reagents, Thermofisher) as shown in Table 6.
JMJD3 DNA encoding the catalytic domain (residues 1141-1682, lacking residues 1637-1675; GenBank BC009994) was amplified by PCR and sub cloned into pCDNA3.1 (+) (Invitrogen, V79020) using BamHI and EcoRI A Flag tag was included in the 5' primer, downstream of the BamHI cloning site. […]
HEK293 cells were homogenized in a Potter S homogenizer in lysis buffer: 50 mM Tris-HCl, 0.8% NP40, 5% glycerol, 150 mM NaCl, 1.5 mM MgCl2, 25 mM NaF, 1 mM sodium vanadate, 1 mM DTT, pH 7.5. […] The supernatant was transferred again to a fresh 50 ml falcon tube, the protein concentration was determined by a Bradford assay (BioRad) and samples containing 50 mg of protein per aliquot were prepared. […]

T1 sequence (O14607 whole entry): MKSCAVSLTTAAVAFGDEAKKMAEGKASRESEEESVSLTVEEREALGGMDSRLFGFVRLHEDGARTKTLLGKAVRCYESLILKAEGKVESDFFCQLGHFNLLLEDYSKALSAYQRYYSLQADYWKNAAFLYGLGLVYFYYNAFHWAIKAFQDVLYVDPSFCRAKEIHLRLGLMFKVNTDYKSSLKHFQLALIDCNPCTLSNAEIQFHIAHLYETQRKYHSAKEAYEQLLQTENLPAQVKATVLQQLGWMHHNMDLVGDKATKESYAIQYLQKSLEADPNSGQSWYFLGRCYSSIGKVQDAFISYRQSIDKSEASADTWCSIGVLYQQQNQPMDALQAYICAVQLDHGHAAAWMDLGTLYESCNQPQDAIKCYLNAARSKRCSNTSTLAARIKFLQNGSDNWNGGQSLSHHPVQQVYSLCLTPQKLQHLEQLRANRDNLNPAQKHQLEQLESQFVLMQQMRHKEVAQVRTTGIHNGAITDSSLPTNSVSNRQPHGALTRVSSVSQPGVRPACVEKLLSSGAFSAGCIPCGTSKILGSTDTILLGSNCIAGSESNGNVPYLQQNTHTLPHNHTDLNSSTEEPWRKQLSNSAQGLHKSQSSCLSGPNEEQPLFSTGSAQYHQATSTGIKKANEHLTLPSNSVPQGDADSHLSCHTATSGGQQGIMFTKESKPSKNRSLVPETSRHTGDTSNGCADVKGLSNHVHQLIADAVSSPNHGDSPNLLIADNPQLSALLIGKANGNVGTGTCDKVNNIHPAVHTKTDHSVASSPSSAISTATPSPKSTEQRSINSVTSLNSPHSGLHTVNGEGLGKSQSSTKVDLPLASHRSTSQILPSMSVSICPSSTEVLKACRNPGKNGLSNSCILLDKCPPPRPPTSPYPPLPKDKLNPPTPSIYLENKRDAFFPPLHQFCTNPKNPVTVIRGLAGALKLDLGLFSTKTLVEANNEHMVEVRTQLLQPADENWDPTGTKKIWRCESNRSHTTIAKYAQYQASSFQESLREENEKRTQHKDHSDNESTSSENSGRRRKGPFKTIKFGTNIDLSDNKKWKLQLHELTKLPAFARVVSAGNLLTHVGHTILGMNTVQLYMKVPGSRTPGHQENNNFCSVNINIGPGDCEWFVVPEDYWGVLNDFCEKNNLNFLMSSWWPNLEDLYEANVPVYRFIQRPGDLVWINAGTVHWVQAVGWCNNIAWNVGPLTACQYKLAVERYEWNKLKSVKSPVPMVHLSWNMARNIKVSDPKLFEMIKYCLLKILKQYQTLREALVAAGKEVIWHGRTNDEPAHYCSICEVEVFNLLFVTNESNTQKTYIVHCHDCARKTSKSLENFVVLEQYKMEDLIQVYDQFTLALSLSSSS

On to `O=C(O)CCNc1cc(N2CCc3ccccc3CC2)nc(-c2ccccn2)n1` [Reference example 2, N-[2-(2-pyridinyl)-6-(1,2,4,5-tetrahydro-3H-3-benzazepin-3-yl)-4-pyrimidinyl]-β-alanine], for which the IC50 amounted to 1.4 µM.

(Values after EP2592154A1, “Immobilization products and methods for the identification of histone demethylase interacting molecules and for the purification of histone demethylase proteins” (CELLZOME AG, priority 2011, dated 2013).)
